In brackets after ≈: the same amount, converted by molar mass.

Common to all, as to assay type: cell-based
For experiment [1], the system named is Bacteroides thetiotaomicron ATCC 29741. The experiment in a line: MIC by broth microdilution (CLSI), QC strain.
The subject of experiment [2] is Akkermansia muciniphila ATCC BAA-835. The experiment in a line: MIC by broth microdilution (CLSI), type strain. To be noted: for MIC: Akkermansia muciniphila, ATCCBAA835, test strain ATCC BAA-835, broth microdilution; for Susceptibility category by MIC breakpoints: test strain ATCC BAA-835, breakpoints per antibiotic in c1-c3.
For experiment [3], the system named is Akkermansia muciniphila EB-AMDK19. Description: MIC by broth microdilution (CLSI), isolated strain. To be noted: for MIC: Akkermansia muciniphila, EBAMDK19, test strain EB-AMDK19, broth microdilution; for Susceptibility category by MIC breakpoints: test strain EB-AMDK19, breakpoints per antibiotic in c1-c3.

For the molecule `C[C@@H](O)[C@H]1C(=O)N2C(C(=O)O)=C(S[C@@H]3CN[C@H](C(=O)N(C)C)C3)[C@H](C)[C@H]12` [MEM, meropenem], the MIC is 0.5 mg/L (≈ 1.3 µM) in experiment [1] (Bacteroides, ATCC29741); 1 mg/L (≈ 2.61 µM) in experiment [2]; 0.5 mg/L (≈ 1.3 µM) in experiment [3]. Besides, the “Susceptibility category by MIC breakpoints” value (from here on “Susceptibility category”) in experiment [2] and in experiment [3] was “(S)” each time.
Regarding `O=C(N[C@H](CO)[C@H](O)c1ccc([N+](=O)[O-])cc1)C(Cl)Cl` [CHL, chloramphenicol], the MIC in experiment [1] (Bacteroides, ATCC29741) came to 8 mg/L (≈ 24.8 µM); in experiment [2], 4 mg/L (≈ 12.4 µM); in experiment [3] it was 4 mg/L (≈ 12.4 µM). For the same molecule, the “Susceptibility category” value in experiment [2] and in experiment [3] was “(S)” in each case.
With Piperacillin-tazobactam [PTZ], the MIC in experiment [1] (QC strain ATCC 29741, broth microdilution) is 8/4. Further, the “Susceptibility category” value in experiment [2] and in experiment [3] was “(S)” in each case.
Consider `COc1c(N2C[C@@H]3CCCN[C@@H]3C2)c(F)cc2c(=O)c(C(=O)O)cn(C3CC3)c12` [MXF, moxifloxacin], for which the MIC was 8 mg/L (≈ 19.9 µM) in experiment [1] (Bacteroides, ATCC29741); > 32 mg/L in experiment [2]; > 32 mg/L in experiment [3]. Moreover, the “Susceptibility category” value in experiment [2] and in experiment [3] was “(R)” throughout.
`Cc1ncc([N+](=O)[O-])n1CCO` [MTZ, metronidazole]: the MIC in experiment [1] (Bacteroides, ATCC29741) is 2 mg/L (≈ 11.7 µM); in experiment [2] it was ≤ 0.25 mg/L; in experiment [3] it was 0.5 mg/L (≈ 2.92 µM). Also, the “Susceptibility category” value in experiment [2] and in experiment [3] was “(S)” in each case.
In the case of `CCC[C@@H]1C[C@@H](C(=O)N[C@@H]([C@H]2O[C@H](SC)[C@H](O)[C@@H](O)[C@H]2O)[C@H](C)Cl)N(C)C1` [CLI, clindamycin], the MIC in experiment [2] is ≤ 0.125 mg/L; in experiment [3] it was 4 mg/L (≈ 9.41 µM). The “Susceptibility category” value is “(S)” in experiment [2] and “(I)” in experiment [3].
Turning to `CO/N=C(\C(=O)N[C@@H]1C(=O)N2C(C(=O)O)=CCS[C@H]12)c1csc(N)n1` [CTZ, ceftizoxime], the MIC in experiment [1] (Bacteroides, ATCC29741) was found to be 16 mg/L (≈ 41.7 µM); in experiment [2], 2 mg/L (≈ 5.22 µM); in experiment [3] it was 1 mg/L (≈ 2.61 µM). The “Susceptibility category” value in experiment [2] and in experiment [3] was “(S)” each time.

The record behind these values is patent US20240390429A1, “METHOD AND FORMULATION FOR TREATING RESPIRATORY DISEASES” (ENTEROBIOME INC., priority 2019, published 2024).
